Assays:
[1] = target: T1, human H4 (Homo sapiens, UniProt Q9H3N8); experiment: In vitro histamine receptor cell-based assay (aequorin bioluminescence), H4 antagonism; conditions: CHO-K1 cells expressing human H4, aequorin and Gα16; histamine at EC80; read-out: H4 Antagonist EC50
T1 construct: host or cells: CHO-K1
Method in brief: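 Antagonism read as loss of aequorin luminescence after histamine (EC80 final) addition, following 15 min room-temperature compound pretreatment of coelenterazine-h-loaded (5 μM) CHO-K1 cells co-expressing human H4 and Gα16. Efficacy given relative to 10 μM JNJ7777120; agonism excluded in separate no-histamine runs.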

[2] = target: T2, human H1 (Homo sapiens, UniProt P35367); experiment: In vitro histamine receptor cell-based assay (aequorin bioluminescence), H1 antagonism; conditions: CHO-K1 cells expressing human H1 and aequorin; histamine at EC80; read-out: H1 Antagonist EC50
T2 construct: host or cells: CHO-K1
Method in brief: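 Antagonism read as drop in aequorin luminescence after histamine challenge at a predetermined EC80, following 15 min compound pretreatment at room temperature. Cells: CHO-K1 carrying human H1, or H4 with Gα16; signal as AUC or amplitude, normalised to 10 μM diphenhydramine (H1) or JNJ7777120 (H4).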

[3] = test system: Hartley VAF outbred guinea pigs; experiment: Allergic conjunctivitis in passively sensitized guinea pigs (conjunctival EPO activity); format: in vivo; parameters: key: +: a 0.01% bid dose was statistically equivalent to dexamethasone with respect to reduction of EPO activity; −: the compound was statistically inferior to dexamethasone and not different than vehicle; conditions: reduction of conjunctival EPO activity vs dexamethasone; for QD activity: ≦0.1% qd topical, 1 hour prior to ovalbumin challenge; for BID activity: 0.01% bid topical, 1 hour prior to and 8 hours after ovalbumin challenge
Description: Male Hartley VAF outbred guinea pigs were passively sensitized to ovalbumin by a single OD subconjunctival injection of undiluted guinea pig anti-ovalbumin antiserum 24 hours before OD topical challenge with 500 μg ovalbumin in saline. Control animals were injected with saline only and challenged with ovalbumin. To determine acute phase drug efficacy, 30 min after challenge animals were clinically scored by a masked observer for severity of signs of conjunctivitis based on a standard scale. Test compounds were administered topically 1 hour prior to challenge (QD protocol), or 1 hour prior to challenge and again 8 hours after challenge (BID protocol). Twenty-four hours after challenge, animals were euthanized and conjunctivae were harvested for determination of tissue eosinophil peroxidase (EPO) concentration as a marker of allergic inflammation. Homogenates of freshly collected tissues were prepared by shaking the tissues in 2 mL round-bottom tubes containing 0.5 mL of homogenization buffer (50 mM Tris HCl, pH 8.0, 6 mM KBr) and one 5-mm stainless steel bead on a Qiagen TissueLyser at 30 Hz for 5 min. Homogenates were frozen and thawed once, then centrifuged at 10,000 rpm for 5 min. EPO activity in supernatants was measured by reacting diluted homogenates with a solution of 6 mM o-phenylenediamine substrate and 8.8 mM H2O2 in homogenization buffer for 3 min. The reaction was stopped with 4M H2SO4 and absorbances were measured at […] on a spectrophotometric plate reader. Total EPO in samples was calculated from a standard curve of recombinant human EPO in each assay. EPO activity was normalized to total protein concentration (Pierce BCA assay) in supernatants. Background EPO activity was determined from the unsensitized, antigen-challenged control group. Percent inhibition was calculated from the sensitized, antigen-challenged, vehicle-treated control group in each experiment. Ovalbumin-injected animals dosed topically with 0.1% w/v dexamethasone (dex) served as positive control. Groups were compared by ANOVA with Dunnett's or Tukey's post-hoc tests where appropriate with significance assigned at the 95% confidence level.
The table below summarizes the results.

T2 sequence (P35367 whole entry): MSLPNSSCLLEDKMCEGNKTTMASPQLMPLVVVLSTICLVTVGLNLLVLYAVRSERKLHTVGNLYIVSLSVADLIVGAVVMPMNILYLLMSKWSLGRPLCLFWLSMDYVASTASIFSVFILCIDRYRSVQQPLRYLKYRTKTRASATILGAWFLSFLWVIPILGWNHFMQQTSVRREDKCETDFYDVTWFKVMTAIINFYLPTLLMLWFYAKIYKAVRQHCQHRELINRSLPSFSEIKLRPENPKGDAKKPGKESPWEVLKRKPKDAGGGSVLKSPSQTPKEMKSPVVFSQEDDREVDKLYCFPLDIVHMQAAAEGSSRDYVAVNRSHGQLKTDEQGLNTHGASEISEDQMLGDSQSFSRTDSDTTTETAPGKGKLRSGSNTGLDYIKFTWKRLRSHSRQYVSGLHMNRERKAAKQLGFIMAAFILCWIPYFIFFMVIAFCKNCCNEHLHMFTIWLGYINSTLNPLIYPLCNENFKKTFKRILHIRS
T1 sequence (Q9H3N8 whole entry): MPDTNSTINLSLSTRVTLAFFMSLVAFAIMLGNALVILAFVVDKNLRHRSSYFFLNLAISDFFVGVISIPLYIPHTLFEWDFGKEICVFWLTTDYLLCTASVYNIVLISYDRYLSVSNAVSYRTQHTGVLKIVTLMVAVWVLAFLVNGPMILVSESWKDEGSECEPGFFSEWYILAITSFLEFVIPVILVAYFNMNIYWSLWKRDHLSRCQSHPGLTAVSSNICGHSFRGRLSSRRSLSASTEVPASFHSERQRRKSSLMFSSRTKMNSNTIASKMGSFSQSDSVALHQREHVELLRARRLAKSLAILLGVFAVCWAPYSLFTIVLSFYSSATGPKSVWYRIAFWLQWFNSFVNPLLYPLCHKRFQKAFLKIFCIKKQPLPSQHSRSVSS

## Cc1nc2c3cc(C(F)(F)F)c(F)cc3nc(N3CCN(C)CC3)n2n1.Cl [Example 124, 8-fluoro-2-methyl-5-(4-methylpiperazin-1-yl)-9-(trifluoromethyl)-[1,2,4]triazolo[1,5-c]quinazoline hydrochloride]
[1]
  EC50: < 10 µM
[2]
  EC50: > 10 µM
[3]
  QD activity: −

## CN1CCN(c2nc3cc(F)c(Cl)cc3n3cnnc23)CC1 [Example 31, 8-chloro-7-fluoro-4-(4-methylpiperazin-1-yl)-[1,2,4]triazolo[4,3-a]quinoxaline]
[1]
  EC50: < 10 µM
[2]
  EC50: > 10 µM
[3]
  QD activity: −

## CN1CCN(c2nc3ccc(C(F)(F)F)cc3n3nnnc23)CC1 [Example 27, 4-(4-methylpiperazin-1-yl)-8-(trifluoromethyl)tetrazolo[1,5-a]quinoxaline]
[1]
  EC50: < 10 µM
[2]
  EC50: > 10 µM
[3]
  QD activity: −

## Clc1ccc2nc(N3CCCNCC3)c3nncn3c2c1 [Example 66, 8-chloro-4-(1,4-diazepan-1-yl)-[1,2,4]triazolo[4,3-a]quinoxaline]
[1]
  EC50: < 10 µM
[2]
  EC50: > 10 µM
[3]
  QD activity: −

## Cc1nc2c(N3CCN(C)CC3)nc3ccc(Cl)cc3c2o1 [Example 143, 8-chloro-2-methyl-4-(4-methylpiperazin-1-yl)oxazolo[4,5-c]quinoline]
[1]
  EC50: < 10 µM
[2]
  EC50: < 10 µM
[3]
  BID activity: +
  QD activity: −

## Brc1ccc2nc(N3CCNCC3)c3nncn3c2c1 [Example 52, 8-bromo-4-(piperazin-1-yl)-[1,2,4]triazolo[4,3-a]quinoxaline]
[1]
  EC50: < 10 µM
[2]
  EC50: > 10 µM
[3]
  QD activity: −

## Cc1nc2c3cc(C(F)(F)F)ccc3nc(N3CCNCC3)n2n1 [Example 104, 2-Methyl-5-(piperazin-1-yl)-9-(trifluoromethyl)-[1,2,4]triazolo[1,5-c]quinazoline]
[1]
  EC50: < 10 µM
[2]
  EC50: > 10 µM
[3]
  QD activity: −

## CN1CCN(c2nc3ccc(Cl)cc3c3cn(C)nc23)CC1 [Example 150, 8-Chloro-2-methyl-4-(4-methylpiperazin-1-yl)-2H-pyrazolo[3,4-c]quinoline]
[1]
  EC50: < 10 µM
[2]
  EC50: > 10 µM
[3]
  BID activity: −

## Cc1nc2c3cc(OC(F)(F)F)ccc3nc(N3CCN(C)CC3)n2n1.Cl [Example 133, 2-methyl-5-(4-methylpiperazin-1-yl)-9-(trifluoromethoxy)-[1,2,4]triazolo[1,5-c]quinazoline hydrochloride]
[1]
  EC50: < 10 µM
[2]
  EC50: > 10 µM
[3]
  QD activity: −

## Cc1nc2c3ccc(C(F)(F)F)cc3nc(N3CCN(C)CC3)n2n1 [Example 109, 2-Methyl-5-(4-methylpiperazin-1-yl)-8-(trifluoromethyl)-[1,2,4]triazolo[1,5-c]quinazoline]
[1]
  EC50: < 10 µM
[2]
  EC50: > 10 µM
[3]
  BID activity: −

## Fc1cc2nc(N3CCNCC3)c3nncn3c2cc1Cl [Example 32, 8-chloro-7-fluoro-4-(piperazin-1-yl)-[1,2,4]triazolo[4,3-a]quinoxaline]
[1]
  EC50: < 10 µM
[2]
  EC50: > 10 µM
[3]
  BID activity: +

## CN1CCN(c2nc3ccc(Br)cc3n3cnnc23)CC1 [Example 54, 8-bromo-4-(4-methylpiperazin-1-yl)-[1,2,4]triazolo[4,3-a]quinoxaline]
[1]
  EC50: < 10 µM
[2]
  EC50: > 10 µM
[3]
  QD activity: −

## CN1CCN(c2nc3cc(F)c(F)cc3n3cnnc23)CC1 [Example 37, 7,8-difluoro-4-(4-methylpiperazin-1-yl)-[1,2,4]triazolo[4,3-a]quinoxaline]
[1]
  EC50: < 10 µM
[2]
  EC50: > 10 µM
[3]
  BID activity: +

## Cc1nc2c3cc(Cl)c(F)cc3nc(N3CCN(C)CC3)n2n1 [Example 95, 9-Chloro-8-fluoro-2-methyl-5-(4-methylpiperazin-1-yl)-[1,2,4]triazolo[1,5-c]quinazoline]
[1]
  EC50: < 10 µM
[2]
  EC50: > 10 µM
[3]
  BID activity: −

## CN1CCN(c2nc3ccc(C(F)(F)F)cc3n3cnnc23)CC1 [Example 23, 4-(4-methylpiperazin-1-yl)-8-(trifluoromethyl)-[1,2,4]triazolo[4,3-a]quinoxaline]
[1]
  EC50: < 10 µM
[2]
  EC50: > 10 µM
[3]
  BID activity: +

## Fc1cc2nc(N3CCNCC3)c3nncn3c2cc1C(F)(F)F [Example 41, 7-Fluoro-4-(piperazin-1-yl)-8-(trifluoromethyl)-[1,2,4]triazolo[4,3-a]quinoxaline]
[1]
  EC50: < 10 µM
[2]
  EC50: > 10 µM
[3]
  QD activity: −

## Fc1cc(C(F)(F)F)cc2c1nc(N1CCNCC1)c1nncn12 [Example 49, 6-Fluoro-4-(piperazin-1-yl)-8-(trifluoromethyl)-[1,2,4]triazolo[4,3-a]quinoxaline]
[1]
  EC50: < 10 µM
[2]
  EC50: > 10 µM
[3]
  QD activity: −

## Cc1nc2c3cc(F)c(C(F)(F)F)cc3nc(N3CCN(C)CC3)n2n1.Cl [Example 129, 9-fluoro-2-methyl-5-(4-methylpiperazin-1-yl)-8-(trifluoromethyl)-[1,2,4]triazolo[1,5-c]quinazoline hydrochloride]
[1]
  EC50: < 10 µM
[2]
  EC50: > 10 µM
[3]
  QD activity: −

## Clc1ccc2nc(N3CCNCC3)c3nc[nH]c3c2c1 [Example 161, 8-Chloro-4-(piperazin-1-yl)-1H-imidazo[4,5-c]quinoline]
[1]
  EC50: < 10 µM
[2]
  EC50: < 10 µM
[3]
  BID activity: +

## Cc1nc2c(N3CCN(C)CC3)nc3cc(F)c(F)cc3c2o1 [Example 145, 7,8-difluoro-2-methyl-4-(4-methylpiperazin-1-yl)oxazolo[4,5-c]quinoline]
[1]
  EC50: < 10 µM
[2]
  EC50: > 10 µM
[3]
  QD activity: −

## Cc1ccc2nc(N3CCN(C)CC3)n3nc(C)nc3c2c1 [Example 99, 2,9-Dimethyl-5-(4-methylpiperazin-1-yl)-[1,2,4]triazolo[1,5-c]quinazoline]
[1]
  EC50: < 10 µM
[2]
  EC50: > 10 µM
[3]
  BID activity: +
  QD activity: −

## Cc1nc2c3cc(C(F)(F)F)c(F)cc3nc(N3CCNCC3)n2n1.Cl [Example 125, 8-fluoro-2-methyl-5-(piperazin-1-yl)-9-(trifluoromethyl)-[1,2,4]triazolo[1,5-c]quinazoline hydrochloride]
[1]
  EC50: < 10 µM
[2]
  EC50: > 10 µM
[3]
  QD activity: −

## CN1CCN(c2nc3ccc(Cl)cc3c3[nH]cnc23)CC1 [Example 160, 8-Chloro-4-(4-methylpiperazin-1-yl)-1H-imidazo[4,5-c]quinoline]
[1]
  EC50: < 10 µM
[2]
  EC50: > 10 µM
[3]
  BID activity: −

## CN1CCN(c2nc3cc(Cl)c(Cl)cc3n3cnnc23)CC1 [Example 39, 7,8-dichloro-4-(4-methylpiperazin-1-yl)-[1,2,4]triazolo[4,3-a]quinoxaline]
[1]
  EC50: < 10 µM
[2]
  EC50: > 10 µM
[3]
  BID activity: +

## Cc1nc2c3cc(Br)ccc3nc(N3CCNCC3)n2n1 [Example 136, 9-bromo-2-methyl-5-(piperazin-1-yl)-[1,2,4]triazolo[1,5-c]quinazoline]
[1]
  EC50: < 10 µM
[2]
  EC50: > 10 µM
[3]
  QD activity: −

## Cc1ccc2nc(N3CCN(C)CC3)c3nncn3c2c1 [Example 21, 8-Methyl-4-(4-methylpiperazin-1-yl)-[1,2,4]triazolo[4,3-a]quinoxaline]
[1]
  EC50: < 10 µM
[2]
  EC50: > 10 µM
[3]
  BID activity: −

## CN1CCN(c2nc3ccc(Cl)cc3n3ccnc23)CC1 [Example 7, 8-Chloro-4-(4-methylpiperazin-1-yl)imidazo[1,2-a]quinoxaline]
[1]
  EC50: < 10 µM
[2]
  EC50: > 10 µM
[3]
  BID activity: −

## Clc1ccc2nc(N3CCNCC3)c3n[nH]cc3c2c1 [Example 153, 8-Chloro-4-(piperazin-1-yl)-2H-pyrazolo[3,4-c]quinoline]
[1]
  EC50: < 10 µM
[2]
  EC50: < 10 µM
[3]
  BID activity: −
